{"source": "patent US20250127905A1", "about": "“GLUTARIMIDE COMPOUND AND USE THEREOF” (MEDSHINE DISCOVERY INC., priority 2021, published 2025)", "key": {"[1]": {"tested_on": "imiquimod-induced psoriasis model", "assay": "Imiquimod-induced psoriasis model in mice: pathological score, ear thickness, spleen weight", "assay_type": "in vivo, BALB/c mice", "settings": "Mean±SEM; for Spleen weight: D7; for Increased ear thickness: D7 relative to D0", "procedure": "It is to evaluate the efficacy of compounds on imiquimod-induced psoriasis model in BALB/c mice.\nAnimals: BALB/c mice, male, 18 to 20 g; source: Zhejiang Vital River Laboratory Animal Technology Co., Ltd.\n(§1) Experimental grouping and administration: After acclimatization, […] male BALB/c mice were randomly divided into 5 groups (n=6 or 9) according to body weight: normal (control, G1) group, vehicle (model, G2) group, test compound low-dose (30 mg/kg, BID, G3) group, test compound medium-dose (100 mg/kg, BID, G4) group, and test compound high-dose (300 mg/kg, BID, G5) group.\n(§2) Model induction: the dorsal skin of the experimental animals was shaved (surface area=2×3 cm) before the application of imiquimod. In addition to the normal group, imiquimod cream was topically applied to the shaved back (47 mg) and left ear (15 mg) at 62 mg/mouse per day for 8 consecutive days (from D0 to D7). For administration groups (G2 to G5), the vehicle or test compound was intragastrically administered twice a day from D-1 to D6 and only once on D7. The administration volume was 10 mL/kg in each group. (Note: It is specified that the first application of imiquimod is D0; since it is administered one day earlier, the first administration is D-1).\nClinical score: Clinical disease scores for erythema, scale, and thickness were measured daily according to a grading system, and cumulative scores were calculated.\nEar thickness: The left ear thickness was measured on D0, D3, D5, and D7 for a total of 4 times, and the increased ear thickness on D7 relative to D0 was calculated.\nSpleen weight: The spleen weight was measured after the animals were sacrificed on D7.\n(§3) Experimental data were expressed as Mean±SEM; data were statistically analyzed using one-way ANOVA in GraphPad Prism software, and p<0.05 was considered a significant difference between the two groups."}, "[2]": {"tested_on": "interleukin 17, interleukin 6, and tumor necrosis factor α", "assay": "Imiquimod-induced psoriasis model in mice: relative levels of skin inflammatory factors (fluorescence quantitative PCR)", "assay_type": "in vivo, BALB/c mice", "settings": "lesion skin D7, Mean±SEM", "procedure": "as §1, §2\nInflammatory factors: The skin was taken from the lesion site after the animals were sacrificed on D7, and the relative levels of interleukin 17, interleukin 6, and tumor necrosis factor α were detected using fluorescence quantitative PCR.\nas §3"}}}
{"smiles": "O=C1CCC(c2noc3c(NC(=O)CN4CCN(C[C@H]5CC[C@H](n6cc(NC(=O)c7cnn8ccc(N9C[C@H]%10C[C@@H]9CO%10)nc78)c(C(F)F)n6)CC5)CC4)cccc23)C(=O)N1", "note": "(stereo partly drawn) [WX015]", "values": [{"measurement": "Spleen weight", "setting": "[1]; 30 mg/kg BID intragastric", "value": "175.78 ± 13.01", "unit": "mg"}, {"measurement": "Increased ear thickness", "setting": "[1]; 30 mg/kg BID intragastric", "value": "208 ± 6", "unit": "µm"}, {"measurement": "Pathological score", "setting": "[1]; 30 mg/kg BID intragastric", "value": "20.2 ± 0.89"}, {"measurement": "Spleen weight", "setting": "[1]; 100 mg/kg BID intragastric", "value": "153.78 ± 11.67", "unit": "mg"}, {"measurement": "Increased ear thickness", "setting": "[1]; 100 mg/kg BID intragastric", "value": "217 ± 5.67", "unit": "µm"}, {"measurement": "Pathological score", "setting": "[1]; 100 mg/kg BID intragastric", "value": "20.5 ± 1.18"}, {"measurement": "Spleen weight", "setting": "[1]; 300 mg/kg BID intragastric", "value": "132.78 ± 3.94", "unit": "mg"}, {"measurement": "Increased ear thickness", "setting": "[1]; 300 mg/kg BID intragastric", "value": "185 ± 2.68", "unit": "µm"}, {"measurement": "Pathological score", "setting": "[1]; 300 mg/kg BID intragastric", "value": "19.0 ± 0.55"}, {"measurement": "Interleukin 6 relative level", "setting": "[2]; 30 mg/kg BID", "value": "8.0 ± 3.3"}, {"measurement": "Interleukin 17 relative level", "setting": "[2]; 30 mg/kg BID", "value": "102.4 ± 36.9"}, {"measurement": "Tumor necrosis factor α relative level", "setting": "[2]; 30 mg/kg BID", "value": "5.2 ± 0.7"}, {"measurement": "Interleukin 6 relative level", "setting": "[2]; 100 mg/kg BID", "value": "13.8 ± 2.3"}, {"measurement": "Interleukin 17 relative level", "setting": "[2]; 100 mg/kg BID", "value": "113.1 ± 49.4"}, {"measurement": "Tumor necrosis factor α relative level", "setting": "[2]; 100 mg/kg BID", "value": "5.2 ± 0.8"}, {"measurement": "Interleukin 6 relative level", "setting": "[2]; 300 mg/kg BID", "value": "4.7 ± 2.0"}, {"measurement": "Interleukin 17 relative level", "setting": "[2]; 300 mg/kg BID", "value": "97.3 ± 35.3"}, {"measurement": "Tumor necrosis factor α relative level", "setting": "[2]; 300 mg/kg BID", "value": "3.7 ± 0.6"}]}
